Results reported in patent US10385057B2, “Pyrazole compounds and methods of making and using same” (Lundbeck La Jolla Research Center, Inc., priority 2015, dated 2019).

Key:
MAGL = biological target: T1, MAGL (Mus musculus, UniProt O35678); experiment: In vitro competitive activity-based protein profiling, mouse MAGL; format: biochemical; settings: for inhibition at 1 µM: read-out: MAGL % inh. 1 μM (mouse)
T1 construct: mouse brain membrane fraction or cell lysates for mouse assays; from tissue
T1 sequence (O35678 1-303): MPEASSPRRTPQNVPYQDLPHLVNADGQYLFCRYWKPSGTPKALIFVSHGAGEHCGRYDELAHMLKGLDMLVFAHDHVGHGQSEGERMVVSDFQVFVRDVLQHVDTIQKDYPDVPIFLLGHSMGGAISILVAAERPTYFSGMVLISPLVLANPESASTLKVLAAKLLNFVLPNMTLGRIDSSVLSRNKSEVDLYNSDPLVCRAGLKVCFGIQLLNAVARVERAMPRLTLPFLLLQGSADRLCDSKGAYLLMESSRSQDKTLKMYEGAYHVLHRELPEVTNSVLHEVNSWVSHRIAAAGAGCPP
Method in brief: (§1)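 Mouse brain membranes or cell lysates (mouse) and human prefrontal cortex or cell membrane fractions (human), 1.0 mg/mL protein, preincubated with inhibitor 30 min at 37 °C, then FP-Rh or HT-01 probe 30 min at 37 °C. SDS-PAGE; MAGL and FAAH activity from in-gel fluorescence band intensity.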

FAAH = biological target: T2, FAAH (Mus musculus, UniProt O08914); experiment: In vitro competitive activity-based protein profiling, mouse FAAH; format: biochemical; settings: for inhibition at 1 µM: read-out: FAAH % inh. 1 μM (mouse)
T2 construct: mouse brain membrane fraction or cell lysates for mouse assays; from tissue
T2 sequence (O08914 1-579): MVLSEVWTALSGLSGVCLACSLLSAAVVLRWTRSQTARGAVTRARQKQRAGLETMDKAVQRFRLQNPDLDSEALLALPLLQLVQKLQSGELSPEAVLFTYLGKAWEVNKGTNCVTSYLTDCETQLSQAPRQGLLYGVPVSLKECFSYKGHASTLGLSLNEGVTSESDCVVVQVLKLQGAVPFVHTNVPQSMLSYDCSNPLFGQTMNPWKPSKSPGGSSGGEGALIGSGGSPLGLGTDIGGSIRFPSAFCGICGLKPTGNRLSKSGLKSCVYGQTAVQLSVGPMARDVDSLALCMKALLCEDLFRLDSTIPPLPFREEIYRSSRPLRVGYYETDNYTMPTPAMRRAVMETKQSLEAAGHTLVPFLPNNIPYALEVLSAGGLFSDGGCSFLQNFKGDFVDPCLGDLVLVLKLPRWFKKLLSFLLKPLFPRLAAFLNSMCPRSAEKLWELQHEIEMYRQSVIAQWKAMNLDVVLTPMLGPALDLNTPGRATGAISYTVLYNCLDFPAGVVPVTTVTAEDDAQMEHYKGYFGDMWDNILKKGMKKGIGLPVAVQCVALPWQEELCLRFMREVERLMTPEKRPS
Method in brief: as §1

IC50 (MAGL) [nM] | inhibition at 1 µM (MAGL) [%] | IC50 (FAAH) [nM] | inhibition at 1 µM (FAAH) [%] | SMILES
≤ 100 | ≥ 75 | 100 to 1000 | ≥ 75 | CC(=O)N1CCN(c2cc(F)ccc2CN2CC3CN(C(=O)n4cc(Cl)cn4)CC3C2)CC1 (stereo not shown) [Example 107, 1-(4-(2-((5-(4-chloro-1H-pyrazole-1-carbonyl)hexahydropyrrolo[3,4-c]pyrrol-2(1H)-yl)methyl)-5-fluorophenyl)piperazin-1-yl)ethan-1-one]
100 to 1000 | ≥ 75 | 1000 to 10000 | 50 to 75 | CC(C)c1ccc(CN2CC3CN(C(=O)n4cc(Cl)cn4)CC3C2)c(N2CCCC2)c1 (stereo not shown) [Example 108, (4-chloro-1H-pyrazol-1-yl)(5-(4-isopropyl-2-(pyrrolidin-1-yl)benzyl)hexahydropyrrolo[3,4-c]pyrrol-2(1H)-yl)methanone]
≤ 100 | ≥ 75 | 1000 to 10000 | 0 to 25 | CC(=O)N1CCN(c2cc(C(C)C)ccc2CN2CC3CN(C(=O)n4cc(Cl)cn4)CC3C2)CC1 (stereo not shown) [Example 109, 1-(4-(2-((5-(4-chloro-1H-pyrazole-1-carbonyl)hexahydropyrrolo[3,4-c]pyrrol-2(1H)-yl)methyl)-5-isopropylphenyl)piperazin-1-yl)ethan-1-one]
≤ 100 | ≥ 75 | 100 to 1000 | ≥ 75 | O=C(N1CC2CN(Cc3ccc(C(F)(F)F)cc3N3CCCC3)CC2C1)n1cc(Cl)cn1 (stereo not shown) [Example 110, (4-chloro-1H-pyrazol-1-yl)(5-(2-(pyrrolidin-1-yl)-4-(trifluoromethyl)benzyl)hexahydropyrrolo[3,4-c]pyrrol-2(1H)-yl)methanone]
≤ 100 | ≥ 75 | 1000 to 10000 | ≥ 75 | O=C(N1CC2CN(Cc3ccc(Cl)cc3N3CCC4(CCOCC4)C3)CC2C1)n1cc(Cl)cn1 (stereo not shown) [Example 111, (4-chloro-1H-pyrazol-1-yl)(5-(4-chloro-2-(8-oxa-2-azaspiro[4.5]decan-2-yl)benzyl)hexahydropyrrolo[3,4-c]pyrrol-2(1H)-yl)methanone]
100 to 1000 | ≥ 75 | ≤ 100 | ≥ 75 | O=C(N1CCC2(CCN(Cc3cccc(Cl)c3)C2)C1)n1cc(Cl)cn1 (stereo not shown) [Example 113, (4-chloro-1H-pyrazol-1-yl)(7-(3-chlorobenzyl)-2,7-diazaspiro[4.4]nonan-2-yl)methanone]
– | 50 to 75 | – | ≥ 75 | O=C(N1CCC2(CCN(Cc3ccccc3)C2)C1)n1cc(Cl)cn1 (stereo not shown) [Example 114, (7-benzyl-2,7-diazaspiro[4.4]nonan-2-yl)(4-chloro-1H-pyrazol-1-yl)methanone]
100 to 1000 | ≥ 75 | 100 to 1000 | ≥ 75 | O=C(N1CCC2(CCN(Cc3ccc(Cl)cc3)C2)C1)n1cc(Cl)cn1 (stereo not shown) [Example 115, (4-chloro-1H-pyrazol-1-yl)(7-(4-chlorobenzyl)-2,7-daizaspiro[4.4]nonan-2-yl)methanone]
≤ 100 | ≥ 75 | ≤ 100 | ≥ 75 | O=C(N1CC2CN(Cc3cccc(Cl)c3)CC2C1)n1cc(Cl)cn1 (stereo not shown) [Example 117, (4-chloro-1H-pyrazol-1-yl)(5-(3-chlorobenzyl)hexahydropyrrolo[3,4-c]pyrrol-2(1H)-yl)methanone]
≤ 100 | ≥ 75 | ≤ 100 | ≥ 75 | O=C(N1CC2CN(Cc3ccc(C(F)(F)F)cc3)CC2C1)n1cc(Cl)cn1 (stereo not shown) [Example 120, (4-chloro-1H-pyrazol-1-yl)(5-(4-(trifluoromethyl)benzyl)hexahydropyrrolo[3,4-c]pyrrol-2(1H)-yl)methanone]
≤ 100 | ≥ 75 | ≤ 100 | ≥ 75 | Cc1cc(-c2ccccc2)ccc1CN1CC2CN(C(=O)n3cc(Cl)cn3)CC2C1 (stereo not shown) [Example 121, (4-chloro-1H-pyrazol-1-yl)(5-((3-methyl-[1,1′-biphenyl]-4-yl)methyl)hexahydropyrrolo[3,4-c]pyrrol-2(1H)-yl)methanone]
100 to 1000 | ≥ 75 | 100 to 1000 | ≥ 75 | O=C(N1CC2CN(Cc3ccc(CN4CCOCC4)cc3)CC2C1)n1cc(Cl)cn1 (stereo not shown) [Example 122, (4-chloro-1H-pyrazol-1-yl)(5-(4-(morpholinomethyl)benzyl)hexahydropyrrolo[3,4-c]pyrrol-2(1H)-yl)methanone]
100 to 1000 | ≥ 75 | 100 to 1000 | ≥ 75 | O=C(N1CC2CN(Cc3ccc(N4CCCC4)cc3)CC2C1)n1cc(Cl)cn1 (stereo not shown) [Example 123, (4-chloro-1H-pyrazol-1-yl)(5-(4-(pyrrolidin-1-yl)benzyl)hexahydropyrrolo[3,4-c]pyrrol-2(1H)-yl)methanone]
≤ 100 | ≥ 75 | ≤ 100 | ≥ 75 | O=C(N1CC2CN(Cc3cccc(Oc4ccccc4)c3)CC2C1)n1cc(Cl)cn1 (stereo not shown) [Example 124, (4-chloro-1H-pyrazol-1-yl)(5-(3-phenoxybenzyl)hexahydropyrrolo[3,4-c]pyrrol-2(1H)-yl)methanone]
100 to 1000 | ≥ 75 | 100 to 1000 | ≥ 75 | O=C(N1CC2CN(Cc3ccc(N4CCOCC4)cc3)CC2C1)n1cc(Cl)cn1 (stereo not shown) [Example 125, (4-chloro-1H-pyrazol-1-yl)(5-(4-morpholinobenzyl)hexahydropyrrolo[3,4-c]pyrrol-2(1H)-yl)methanone]
≤ 100 | ≥ 75 | ≤ 100 | ≥ 75 | O=C(N1CC2CN(Cc3ccc(N4CCOCC4)cc3Cl)CC2C1)n1cc(Cl)cn1 (stereo not shown) [Example 126, (4-chloro-1H-pyrazol-1-yl)(5-(2-chloro-4-morpholinobenzyl)hexahydropyrrolo[3,4-c]pyrrol-2(1H)-yl)methanone]
100 to 1000 | ≥ 75 | ≤ 100 | ≥ 75 | O=C(N1CCC2(CCN(Cc3ccc(Cl)c(Cl)c3)C2)C1)n1cc(Cl)cn1 (stereo not shown) [Example 127, (4-chloro-1H-pyrazol-1-yl)(7-(3,4-dichlorobenzyl)-2,7-diazaspiro[4.4]nonan-2-yl)methanone]
100 to 1000 | ≥ 75 | 100 to 1000 | ≥ 75 | O=C(N1CCC2(CCN(Cc3ccc(C(F)(F)F)cc3)C2)C1)n1cc(Cl)cn1 (stereo not shown) [Example 128, (4-chloro-1H-pyrazol-1-yl)(7-(4-(trifluoromethyl)benzyl)-2,7-diazaspiro[4.4]nonan-2-yl)methanone]
– | 25 to 50 | – | 50 to 75 | O=C(N1CCC2(CCN(Cc3ccc(CN4CCOCC4)cc3)C2)C1)n1cc(Cl)cn1 (stereo not shown) [Example 129, (4-chloro-1H-pyrazol-1-yl)(7-(4-(morpholinomethyl)benzyl)-2,7-diazaspiro[4.4]nonan-2-yl)methanone]
≤ 100 | ≥ 75 | ≤ 100 | ≥ 75 | Cc1cc(N2CCOCC2)ccc1CN1CC2CN(C(=O)n3cc(Cl)cn3)CC2C1 (stereo not shown) [Example 131, (4-chloro-1H-pyrazol-1-yl)(5-(2-methyl-4-morpholinobenzyl)hexahydropyrrolo[3,4-c]pyrrol-2(1H)-yl)methanone]
100 to 1000 | ≥ 75 | ≤ 100 | ≥ 75 | O=C(N1CCC2(CCN(Cc3ccc(N4CCCC4)cc3)C2)C1)n1cc(Cl)cn1 (stereo not shown) [Example 134, (4-chloro-1H-pyrazol-1-yl)(7-(4-(pyrrolidin-1-yl)benzyl)-2,7-diazaspiro[4.4]nonan-2-yl)methanone]
100 to 1000 | ≥ 75 | ≤ 100 | ≥ 75 | O=C(N1CCC2(CCN(Cc3cccc(Oc4ccccc4)c3)C2)C1)n1cc(Cl)cn1 (stereo not shown) [Example 135, (4-chloro-1H-pyrazol-1-yl)(7-(3-phenoxybenzyl)-2,7-diazaspiro[4.4]nonan-2-yl)methanone]
100 to 1000 | ≥ 75 | 100 to 1000 | ≥ 75 | O=C(N1CCC2(CCN(Cc3ccc(N4CCOCC4)cc3)C2)C1)n1cc(Cl)cn1 (stereo not shown) [Example 136, (4-chloro-1H-pyrazol-1-yl)(7-(4-morpholinobenzyl)-2,7-diazaspiro[4.4]nonan-2-yl)methanone]
